pEC50: −log10 of the molar value. Where “and” joins values, the source holds several entries; their conditions need not be identical. Equal values may be shown once. Read-outs that look alike come from different tables or passages of the source. *1 amine or outer side, *2 acyl side, *3 side chain or, on linkers, in order; H or OH if unused. Where a SMILES comes first, the peptide text is derived from it. Bridges are numbered along the chain shown (N, C = ends). [ ]: non-standard residue; d: D form. The star is where a group is joined. Leu(3R-OH,Nα-propionyl) = CCC(=O)N[C@H](C(=O)*)[C@H](O)C(C)C; X1 = CC(C)[C@@H](O[*:3])[C@H](N[*:1])C(=O)[*:2]; NMeT = CN[C@H](C(=O)O)[C@@H](C)O; dPhLac = O=C(O)[C@H](O)Cc1ccccc1; NMeA = CN[C@@H](C)C(=O)O; NMeDha = C=C(NC)C(=O)O
Columns and labels:
[1] = system: HepG2 cells; experiment: Label-free cellular impedance assay (xCELLigence) in HepG2 cells; type: cell-based, human; details: for effect of signaling pathway inhibitor pretreatment on the impedance response to lodoxamide: HepG2 cells, FR900359 1 × 10^–7 M, Pertussis toxin 100 ng/mL, Y27632 1 × 10^–5 M
Method: HepG2 cells were seeded onto xCELLigence E plates (2 × 10^4 cells/well) and incubated for 24 h at 37 °C. To evaluate GPR35 activation and its downstream G protein signaling, HepG2 cells or primary mouse hepatocytes were exposed to GPR35 antagonists or G protein inhibitors 1 h (overnight for Pertussis toxin) prior to GPR35 agonist stimulation. After the addition of GPR35 agonist or vehicle control, the impedance (represented as “cell index”) was recorded every 30 s over a 2 h period using xCELLigence RTCA (Agilent). Each experiment was repeated at least three times.

[2] = system: GPR35 genome-edited HepG2 clones; experiment: Label-free cellular impedance assay in GPR35 genome-edited HepG2 clones 19 and 27; type: cell-based, human
From the text: Expression of full-length mRNA from the GPR35 gene was eliminated using a dual synthetic gRNA/RNP approach[43] with one guide cutting the intron and one in the exon region to generate a nonfunctional GPR35 protein. The gRNAs were designed with the CRISPR Finder (Welcome Sanger Institute). HepG2 cells were transfected with the Neon Transfection System from Thermo Fisher Scientific (Waltham, MA), according to the manufacturer’s instructions. Briefly, CrRNA and tracrRNA were annealed to gRNA at 95 °C for 5 min. Next, cells were transfected with gRNA, Cas9, and the electroporation enhancer, according to the manufacturer’s instructions. All crRNAs, tracrRNA, SpCas9 nuclease, and the electroporation enhancer were purchased from Integrated DNA Technologies (Coralville, IA). Transfected cells were plated and analyzed for editing efficiency 24–48 h after electroporation. Single-cell clones were generated by single-cell FACS sorting. Clones were expanded and to access editing efficiency, genomic DNA from cell clones was extracted and subjected to PCR to confirm the genome deletion. To further quantify and capture the genomic DNA deletion, PCR primers listed in Table S1 were designed to amplify the genomic DNA surrounding the target site. The PCR primers were linked to the sequences of the Illumina Nextera adapters. The amplified PCR products were subjected to paired-end sequencing using NextSeq500 from Illumina using paired-end chemistry with a 150-bp read length. In addition, mRNA from KO clones was isolated and subjected to RT-PCR. To further confirm the abrogation of GPR35 activation in CRISPR KO clones, KO cells were seeded onto xCELLigence E plates (2 × 10^4 cells/well) for 24 h at 37 °C prior to the treatment of GPR35 agonists. The impedance was recorded using xCELLigence RTCA. […]
HepG2 cells were seeded onto xCELLigence E plates (2 × 10^4 cells/well) and incubated for 24 h at 37 °C. […] After the addition of GPR35 agonist or vehicle control, the impedance (represented as “cell index”) was recorded every 30 s over a 2 h period using xCELLigence RTCA (Agilent). […]

[3] = target: human GPR35a (Homo sapiens, UniProt Q9HC97); experiment: β-arrestin-based interaction assay, agonist potency at human GPR35a; type: cell-based
[4] = system: hepatocytes from GPR35 knock-out mice; experiment: Oil Red O lipid accumulation in hepatocytes from GPR35 knock-out mice; details: treatment for 5 days
Method: (§1) All mice were bred as WT or homozygous onto a C57BL/6N background. Animals were cared for in accordance with national guidelines on animal experimentation. All animal experiments were conducted under a home office license held by the authors. WT, humanized GPR35a, or KO male mice at 3–4 months of age were used in this study. These mice were fed ad libitum with a standard mouse chow diet. Briefly, mouse primary hepatocytes were isolated using a two-step collagenase perfusion technique.[45] Twelve-well plates or xCELLigence E plates were coated with rat tail collagen I solution (Thermo Fisher Scientific) overnight at 37 °C and washed with PBS. […] After each drug treatment, hepatocytes were stained with Oil Red O and quantified as described. […]
(§2) Lipid accumulation was measured by Oil Red O staining. […] After PBS washing, Oil Red O was extracted from cells using 150 μl of isopropanol and OD510 nm measured. […] These cells were then stained with Hoechst 33342 (1 μg/mL) and the fluorescence intensity of Hoechst (represents the DNA content in cells) was measured using a CLARIOstar plate reader (BMG LABTECH). Oil Red O accumulation was corrected for differences in DNA content and expressed as relative absorbency, taking the control condition (treated with vehicle only) as 1.

[5] = system: hepatocytes from wild-type mice; experiment: Oil Red O lipid accumulation in hepatocytes from wild-type mice; type: cell-based, mouse; details: 48 h, hepatocytes from wild-type mice, co-incubation with T0901317 5 × 10^–6 M, read-out: EC50 for suppression of LXR-mediated lipid accumulation
Method: as §1, with “PBS. Isolated primary hepatocytes were seeded onto 12-well plates (8 × 10^4 cells/well) or xCELLigence E plates (2 × 10^4 cells/well) in Wiliam’s E medium (Thermo Fisher Scientific) supplemented with 10% fetal bovine serum (FBS) and 1× penicillin/streptomycin. Cells were maintained for 7 days with a fresh medium change every other day. […] Human GPR35 activation was examined using xCELLigence RTCA assay. To access the impact of GPR35 agonists on the lipid accumulation, WT and humanized GPR35 hepatocytes were incubated with T0901317 and/or GPR35 agonists/antagonists, as indicated (in DMEM medium containing 5% FBS and 1.5% BSA) for 48 h. Alternatively, GPR35 KO hepatocytes were incubated with drugs, as indicated for 5 days.” for “PBS.”
as §2

[6] = target: mouse GPR35 (Mus musculus, UniProt Q9ES90); experiment: β-arrestin-based interaction assay, agonist potency at mouse GPR35; type: cell-based
mouse GPR35, sequence (Q9ES90 whole entry): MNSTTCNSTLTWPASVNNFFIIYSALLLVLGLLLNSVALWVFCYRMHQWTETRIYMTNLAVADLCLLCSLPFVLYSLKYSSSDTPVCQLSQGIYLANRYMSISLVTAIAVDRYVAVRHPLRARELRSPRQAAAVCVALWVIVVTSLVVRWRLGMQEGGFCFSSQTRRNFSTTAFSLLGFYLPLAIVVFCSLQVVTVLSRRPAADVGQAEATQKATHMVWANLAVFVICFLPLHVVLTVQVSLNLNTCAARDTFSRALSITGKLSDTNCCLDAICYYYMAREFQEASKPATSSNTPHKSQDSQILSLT

human GPR35a, sequence (Q9HC97 whole entry): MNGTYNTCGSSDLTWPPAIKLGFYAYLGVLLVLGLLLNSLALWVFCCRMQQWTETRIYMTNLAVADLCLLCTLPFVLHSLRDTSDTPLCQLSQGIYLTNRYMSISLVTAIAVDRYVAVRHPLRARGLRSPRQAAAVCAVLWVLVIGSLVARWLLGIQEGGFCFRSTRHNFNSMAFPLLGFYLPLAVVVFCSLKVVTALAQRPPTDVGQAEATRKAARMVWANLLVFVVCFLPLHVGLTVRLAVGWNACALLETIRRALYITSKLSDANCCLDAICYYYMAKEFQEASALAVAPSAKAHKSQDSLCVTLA

Pertussis toxin
effect of signaling pathway inhibitor pretreatment on the impedance response to lodoxamide [1]: small although a statistically nonsignificant reduction

C=C1C(=O)N[C@@H](C)C(=O)N(C)[C@@H](C)C(=O)N[C@@H]([C@H](OC(=O)[C@@H](NC(=O)CC)[C@H](O)C(C)C)C(C)C)C(=O)N(C)[C@@H]([C@@H](C)OC)C(=O)O[C@H](C(C)C)[C@H](NC(C)=O)C(=O)O[C@H](Cc2ccccc2)C(=O)N1C [FR900359] (Ac-[X1][dPhLac][NMeDha]A[NMeA][X1](Leu(3R-OH,Nα-propionyl))[NMeT](Me); ester 1-C)
effect of signaling pathway inhibitor pretreatment on the impedance response to lodoxamide [1]: without effect

Nc1ncnc2c1ncn2[C@@H]1O[C@H](COP(=O)(O)OP(=O)(O)OP(=O)(O)O)[C@@H](O)[C@H]1O [ATP]
impedance response to ATP in wild-type HepG2 cells and GPR35 genome-edited clones ([2]; P2Y purinoceptor stimulus, control of responsiveness): enhanced electrical conductance

C[C@@H](N)[C@H]1CC[C@H](C(=O)Nc2ccncc2)CC1 [Y27632]
effect of signaling pathway inhibitor pretreatment on the impedance response to lodoxamide [1]: all but eliminated

CCCCc1cc2c(=O)cc(C(=O)O)[nH]c2c2c(=O)cc(C(=O)O)[nH]c12 [bufrolin, 6-butyl-4,10-dioxo-1,7-dihydro-1,7-phenanthroline-2,8-dicarboxylic acid]
ratio (log) (H/M) ([3]; log ratio of potency at human GPR35a over mouse GPR35): 1.02 ± 0.06 | EC50 ([3]; β-arrestin-based interaction assay, read-out: human GPR35a, pEC50 (converted)): 14.8 nM | suppression of lipid accumulation induced by T0901317 in hepatocytes from GPR35 knock-out mice [4]: did not suppress lipid accumulation | pEC50 ([5]; Mus musculus, Hepatocyte): 7.10 | pEC50 [5]: 7.10 and ~7.10 | fold more potent than lodoxamide at mouse GPR35 ([6]; bufrolin versus lodoxamide): more than 10 fold | fold lower potency at mouse GPR35 than at human GPR35 ([6]; mouse versus human GPR35): ~10 fold | pEC50 ([6]; read-out: EC50 at the mouse GPR35): > 7.00 | EC50 ([6]; β-arrestin-based interaction assay, read-out: mouse GPR35, pEC50 (converted)): 155 nM

CCCOc1ccccc1-c1nc2nn[nH]c2c(=O)[nH]1 [zaprinast]
impedance signal in parental HepG2 cells ([1]; 1 × 10^–5 M): produced positive signals | impedance signal in GPR35 genome-edited clones 19 and 27 ([2]; 1 × 10^–5 M): not in either clone 19 or 27 | pEC50 [6]: 6.18

— publication PMC8669712, “G Protein-Coupled Receptor GPR35 Suppresses Lipid Accumulation in Hepatocytes” (ACS Pharmacology & Translational Science, 2021)
